Experimental data from ChEMBL document CHEMBL1201862, “PubChem BioAssay data set” (2004).
Calls of active or inactive are those of the source. Rule as the data show it: actives have a measured IC50 and inactives only a lower limit.

Molecular target: Envelope glycoprotein gp160 (Human immunodeficiency virus 1, UniProt Q6QLK5)
Test: inhibitors of HIV fusion peptide binding, primary screen, biochemical, uHTS, fluorescence dequenching (AID 1986)

Envelope glycoprotein gp160, sequence (Q6QLK5 whole entry, the tested form may be a part): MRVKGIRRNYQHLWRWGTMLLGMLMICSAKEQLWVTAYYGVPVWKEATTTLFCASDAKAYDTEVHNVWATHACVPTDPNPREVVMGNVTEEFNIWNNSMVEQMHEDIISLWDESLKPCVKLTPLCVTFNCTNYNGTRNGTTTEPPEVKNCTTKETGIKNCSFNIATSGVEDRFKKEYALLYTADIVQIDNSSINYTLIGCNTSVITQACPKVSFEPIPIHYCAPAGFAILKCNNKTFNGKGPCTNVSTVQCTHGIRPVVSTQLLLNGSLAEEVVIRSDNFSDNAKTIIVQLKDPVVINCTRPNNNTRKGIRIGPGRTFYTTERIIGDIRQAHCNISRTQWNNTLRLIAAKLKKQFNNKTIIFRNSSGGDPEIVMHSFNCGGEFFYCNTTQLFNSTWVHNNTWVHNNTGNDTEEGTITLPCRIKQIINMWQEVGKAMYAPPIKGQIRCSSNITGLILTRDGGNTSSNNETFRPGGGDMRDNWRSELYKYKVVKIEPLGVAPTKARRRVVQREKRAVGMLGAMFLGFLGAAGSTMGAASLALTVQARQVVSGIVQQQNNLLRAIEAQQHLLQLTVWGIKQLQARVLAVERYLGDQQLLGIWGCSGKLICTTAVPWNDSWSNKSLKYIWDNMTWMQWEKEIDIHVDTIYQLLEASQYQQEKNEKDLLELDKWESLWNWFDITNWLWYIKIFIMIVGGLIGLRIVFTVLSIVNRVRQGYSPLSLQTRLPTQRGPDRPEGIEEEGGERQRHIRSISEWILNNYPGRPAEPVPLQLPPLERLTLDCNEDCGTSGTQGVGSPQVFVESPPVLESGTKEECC

SMILES | IC50
CCN1C(=O)/C(=C\c2ccc(-c3ccc([N+](=O)[O-])cc3OC)o2)S/C1=N\c1cccc(C(=O)O)c1 | 29.4 µM (active)
O=C(O)c1cc(N2N=C(C(F)(F)F)/C(=C/C=C/c3ccco3)C2=O)ccc1Cl | 8.25 µM (active)
